Like-named read-outs stand apart in the source and are kept apart here.

The subject of experiment [1] is STZ-induced diabetic SD rats. On the procedure:
Male SD rats, 6 weeks of age and weighing 180-200 g, were used in this study; the rats had free access to food and water and were maintained in cages in an environmentally controlled room with a 12 hour light-dark cycle. Diabetes was induced by following dosing of animals with streptozotocin (50 mg/kg/day dosed i.p. for each of the first 3 days of the protocol) in 10 mM sodium citrate-buffer pH 4.6. […] Animals which maintained an elevated blood glucose level of over 9 mM were deemed diabetic.
The retinal images were scanned by a commercially available Fourier-domain OCT (RTVue-100; version 2.1; Optovue, Inc., California, USA). Super-luminescent diode light source with a central wavelength of 840 nm and a full bandwidth of 50 nm was adapted to the OCT. The retinal thickness was accessed by the automatic software of RTVue scanner with manual adjusting. The retinal thickness was defined from layer of retinal pigment eitheluim (RPE) to retinal ganglion cell layer (GCL).
Two separate studies were conducted. Retinal images were taken on experimental day 4, 10, 13, 17, 22, 28 and 31 for the second study and day 0, 4, 7, 10, 14 and 18 for the first study. Animals were anesthetized by inhalation of 5% isoflourane and pupils were diluted with 1% tropicamide and 1% phenylephrine. Prior to OCT analysis animals were fixed on a support frame and the eye to be imaged positioned to align with the center of the scan beam perpendicular to the fundus. […] After imaging, the animals were recovered and returned to cages. Retinal thickness from six time points of OCT measurement were analyzed by repeated measures analysis of variance (ANOVA) using Prism software. […] All data were expressed as mean value±SEM.

The next experiment addresses Lp-PLA2 (Rattus norvegicus, UniProt A6JJ35). The settings on record: hyperglycemic BN rats, 10 mg/kg i.p. QD. On the procedure: (§1) Brown Norway (BN) rats, 6 weeks of age and weighing 180-200 g, were used in this study; the rats had free access to food and water and were maintained in cages in an environmentally controlled room with a 12 hour light-dark cycle. Diabetes was induced by following dosing of animals with streptozotocin (65 mg/kg/day dosed i.p. for each of the first 3 days of the protocol) in 10 mM sodium citrate-buffer pH 4.6. […] Animals which maintained an elevated blood glucose level of over 9 mM were deemed diabetic.

Experiment [2] relates to STZ-induced diabetic Brown Norway rats (blood-retinal barrier). As to conditions: BN rats, 2 week study, 10 mg/kg i.p. QD; not statistically robust. On the procedure:
as §1

Experiment [3] has the same test system. As to conditions: hyperglycaemic BN rats. On the procedure: as §1
Eyes were enucleated, hemisected along the ora serrata, and the vitreous humor removed. Eyecups were immersion fixed in 4% (w/v) paraformaldehyde for 30 min, washed in PBS, and the retinas detached. Fixed retinas were cryoprotected, embedded in Tissue-Tek OCT compound snap frozen in liquid nitrogen-cooled isopentane, and 12-μm cryosections prepared. Sections was immunostained with antibodies specific for rat immunoglobulin G (IgG) in order to locate any nonvascular IgG and isolectin B4 to determine the location of retinal blood vessels in the retinal sections and viewed on a confocal microscope. Fluorescence was visualized by using a Nikon TE-2000 C1 confocal system (Nikon Ltd, Kingston upon Thames, UK). In some cases retinal blood vessels were highlighted using propridium iodide staining

Lp-PLA2, sequence (A6JJ35 22-440): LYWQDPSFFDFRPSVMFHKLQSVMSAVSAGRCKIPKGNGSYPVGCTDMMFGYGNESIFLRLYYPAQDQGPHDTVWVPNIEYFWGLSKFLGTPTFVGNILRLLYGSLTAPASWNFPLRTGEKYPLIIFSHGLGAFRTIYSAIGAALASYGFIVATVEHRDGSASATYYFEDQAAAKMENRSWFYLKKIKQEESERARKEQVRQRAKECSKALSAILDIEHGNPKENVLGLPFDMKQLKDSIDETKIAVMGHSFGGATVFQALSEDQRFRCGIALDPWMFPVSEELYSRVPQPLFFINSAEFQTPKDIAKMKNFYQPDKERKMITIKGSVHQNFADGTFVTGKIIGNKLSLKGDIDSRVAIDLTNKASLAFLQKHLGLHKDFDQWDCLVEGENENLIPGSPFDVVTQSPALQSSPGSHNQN

`CN(C)CCN(Cc1ccc(-c2ccc(C(F)(F)F)cc2)cc1)C(=O)Cn1cc(Cc2cnn(C)c2)c(=O)nc1SCc1ccc(F)cc1` [Lp-PLA2 inhibitor '495]: the “STZ-induced retinal thinning (neuroretinal thickness by OCT)” value in experiment [1] (first study, 10 mg/kg/day i.p. from day 8, assessed at 10 and 18 days, p<0.05) was “partially but significantly inhibited”; in experiment [1] (second study, 10 mg/kg/d i.p. from day 4, vs vehicle-treated diabetic rats, p<0.001), “significant attenuation in the development of retinal thinning”. In addition, the “incidence of sub-retinal fluid accumulation by OCT” value in experiment [1] (hyperglycaemic SD rats, 10 mg/kg/day, day 14) is given as “no animals to have overt retinal fluid accumulation”. Also, the entries for the “trough Lp-PLA2 inhibition” value on Lp-PLA2 (2 weeks study) and on Lp-PLA2 (4 week study) were 89.7% and 93.2%, respectively. Further, the “Evans blue (albumin) leakage in retinae” value in experiment [2] is on record as “reduced this leak to levels exhibited by the normo-glycaemic group”. The “albumin leakage from retinal vessels (immunohistochemistry)” value is “less leakage and extensive co-localization of albumin with retinal blood vessels” in experiment [3] (10 mg/kg QD i.p., 4 weeks, listed as SB435495, 10 mg/kg); “albumin is contained intravascularly and co-localised with retinal vessels” in experiment [3] (20 mg/kg QD i.p., 2 weeks, 20 mg/kg); “less leakage and extensive co-localization of albumin with retinal blood vessels” in experiment [3] (20 mg/kg QD i.p., 2 weeks, listed as SB435495, 20 mg/kg).
